Reference: the supplement of paper PMC13207355

Assays:
Settings in all cases: exposure time: 72 h
E13 [1] = patient-derived glioblastoma stem cells of classical subtype; assay: surviving fraction (nuclei count normalised to DMSO); higher = more cells surviving (less toxic)
E21 [2] = patient-derived glioblastoma stem cells of mesenchymal subtype; assay: as above
E28 [3] = patient-derived glioblastoma stem cells of classical subtype; assay: as above
E31 [4] = patient-derived glioblastoma stem cells of proneural subtype; assay: as above
E34 [5] = patient-derived glioblastoma stem cells of proneural subtype; assay: as above
E57 [6] = patient-derived glioblastoma stem cells of mesenchymal subtype; assay: as above
FT3469 [7] = normal neural stem cell line; assay: as above
E13 [8] = assay: phenotypic distance (Euclidean, principal components) from DMSO controls (arbitrary units); higher = stronger morphological change
E21 [9] = assay: as above
E28 [10] = assay: as above
E31 [11] = assay: as above
E34 [12] = assay: as above
E57 [13] = assay: as above
FT3469 [14] = assay: as above
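Wherever phenotypic distance (Euclidean, principal components) from DMSO controls is given: cell Painting imaging in 384-well plates, CellProfiler features reduced to at least 20 principal components, Euclidean distance versus same-plate DMSO vehicle wells (0.1% v/v), median over six images per well.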
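Wherever surviving fraction (nuclei count normalised to DMSO) is given: nuclei counted by high-content imaging of Hoechst-stained cells in laminin-coated 384-well plates, relative to 0.1% DMSO vehicle wells, with staurosporine as cell-death control.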

O=C1CC[C@@H](C(=O)N2CSC[C@H]2C(=O)O)N1 [Pidotimod]
Settings | phenotypic distance | surviving fraction
E13 [1], 4.1 nM | – | 0.925
E13 [1], 12.3 nM | – | 1.01
E13 [1], 37 nM | – | 0.97
E13 [1], 111.1 nM | – | 1
E13 [1], 333.3 nM | – | 1.06
E13 [1], 1000 nM | – | 1.01
E13 [1], 3000 nM | – | 0.913
E13 [8], 4.1 nM | 0.802 | –
E13 [8], 12.3 nM | 0.46 | –
E13 [8], 37 nM | 0.672 | –
E13 [8], 111.1 nM | 0.456 | –
E13 [8], 333.3 nM | 3.33 | –
E13 [8], 1000 nM | 0.449 | –
E13 [8], 3000 nM | 0.493 | –
E21 [2], 4.1 nM | – | 0.96
E21 [2], 12.3 nM | – | 1
E21 [2], 37 nM | – | 0.984
E21 [2], 111.1 nM | – | 1.08
E21 [2], 333.3 nM | – | 0.991
E21 [2], 1000 nM | – | 0.96
E21 [2], 3000 nM | – | 0.947
E21 [9], 4.1 nM | 0.591 | –
E21 [9], 12.3 nM | 0.496 | –
E21 [9], 37 nM | 0.601 | –
E21 [9], 111.1 nM | 0.694 | –
E21 [9], 333.3 nM | 0.815 | –
E21 [9], 1000 nM | 0.785 | –
E21 [9], 3000 nM | 0.805 | –
E28 [3], 4.1 nM | – | 1.2
E28 [3], 12.3 nM | – | 1.02
E28 [3], 37 nM | – | 0.964
E28 [3], 111.1 nM | – | 1.11
E28 [3], 333.3 nM | – | 1.04
E28 [3], 1000 nM | – | 1.16
E28 [3], 3000 nM | – | 0.954
E28 [10], 4.1 nM | 0.887 | –
E28 [10], 12.3 nM | 1.4 | –
E28 [10], 37 nM | 0.401 | –
E28 [10], 111.1 nM | 0.59 | –
E28 [10], 333.3 nM | 0.551 | –
E28 [10], 1000 nM | 0.647 | –
E28 [10], 3000 nM | 0.608 | –
E31 [4], 4.1 nM | – | 1.08
E31 [4], 12.3 nM | – | 1.02
E31 [4], 37 nM | – | 1.01
E31 [4], 111.1 nM | – | 1.11
E31 [4], 333.3 nM | – | 0.994
E31 [4], 1000 nM | – | 1.17
E31 [4], 3000 nM | – | 0.845
E31 [11], 4.1 nM | 0.386 | –
E31 [11], 12.3 nM | 0.576 | –
E31 [11], 37 nM | 0.777 | –
E31 [11], 111.1 nM | 0.985 | –
E31 [11], 333.3 nM | 0.492 | –
E31 [11], 1000 nM | 0.921 | –
E31 [11], 3000 nM | 0.594 | –
E34 [5], 4.1 nM | – | 0.98
E34 [5], 12.3 nM | – | 0.951
E34 [5], 37 nM | – | 0.786
E34 [5], 111.1 nM | – | 1.09
E34 [5], 333.3 nM | – | 0.996
E34 [5], 1000 nM | – | 1.04
E34 [5], 3000 nM | – | 1.04
E34 [12], 4.1 nM | 0.643 | –
E34 [12], 12.3 nM | 0.613 | –
E34 [12], 37 nM | 0.723 | –
E34 [12], 111.1 nM | 0.721 | –
E34 [12], 333.3 nM | 0.963 | –
E34 [12], 1000 nM | 0.89 | –
E34 [12], 3000 nM | 0.949 | –
E57 [6], 4.1 nM | – | 1.07
E57 [6], 12.3 nM | – | 0.938
E57 [6], 37 nM | – | 1.02
E57 [6], 111.1 nM | – | 1.11
E57 [6], 333.3 nM | – | 0.978
E57 [6], 1000 nM | – | 1
E57 [6], 3000 nM | – | 1.03
E57 [13], 4.1 nM | 0.799 | –
E57 [13], 12.3 nM | 1.03 | –
E57 [13], 37 nM | 0.543 | –
E57 [13], 111.1 nM | 0.877 | –
E57 [13], 333.3 nM | 0.527 | –
E57 [13], 1000 nM | 0.924 | –
E57 [13], 3000 nM | 0.651 | –
FT3469 [7], 4.1 nM | – | 0.972
FT3469 [7], 12.3 nM | – | 1.13
FT3469 [7], 37 nM | – | 0.987
FT3469 [7], 111.1 nM | – | 1.06
FT3469 [7], 333.3 nM | – | 1.01
FT3469 [7], 1000 nM | – | 1.01
FT3469 [7], 3000 nM | – | 0.933
FT3469 [14], 4.1 nM | 0.84 | –
FT3469 [14], 12.3 nM | 0.912 | –
FT3469 [14], 37 nM | 0.359 | –
FT3469 [14], 111.1 nM | 0.641 | –
FT3469 [14], 333.3 nM | 0.526 | –
FT3469 [14], 1000 nM | 0.625 | –
FT3469 [14], 3000 nM | 0.629 | –
